Test results reported in PubChem BioAssay AID330 (DTP/NCI, 2004).
Where “and” joins values, the source holds several entries; their conditions need not be identical. Equal entries are not always repeated. Inconclusive results and toxic doses are left out.

System: P388 leukemia ip, CD2F1 mice, survival T/C
Experiment: NCI In Vivo Anticancer Drug Screen. Data for tumor model P388 Leukemia (intraperitoneal) in CD2F1 (CDF1) mice
Conditions: endpoint: median survival time, higher = longer survival
Summary of the method: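 Mice carrying the transplanted tumor received test compound or vehicle. Survival was recorded in each group, and the value is the treated-group measurement divided by that of the vehicle-treated control group.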

[1] = dose: 50.0 mg/kg/injection, schedule: Q01DX009 (ip), vehicle: Klucel (hydroxypropylcellulose) (HPC)
[2] = dose: 200.0 mg/kg/injection, schedule: Q01DX009 (ip), vehicle: Klucel (hydroxypropylcellulose) (HPC)
[3] = dose: 100.0 mg/kg/injection, schedule: Q01DX009 (ip), vehicle: Klucel (hydroxypropylcellulose) (HPC)
[4] = dose: 50.0 mg/kg/injection, schedule: Q01DX005 (ip), vehicle: saline
[5] = dose: 100.0 mg/kg/injection, schedule: Q01DX005 (ip), vehicle: saline
[6] = dose: 200.0 mg/kg/injection, schedule: Q01DX005 (ip), vehicle: saline
[7] = dose: 100.0 mg/kg/injection, schedule: Q01DX001 (ip), vehicle: saline with Tween-80
[8] = dose: 200.0 mg/kg/injection, schedule: Q01DX001 (ip), vehicle: saline with Tween-80
[9] = dose: 400.0 mg/kg/injection, schedule: Q01DX001 (ip), vehicle: saline with Tween-80

Compound: NC(=S)N/N=C/c1cc(-c2cccc(N)c2)ccn1
- T/C (dose: 6.25 mg/kg/injection, schedule: Q01DX009 (ip), vehicle: saline): 121 % of control
- T/C (dose: 9.4 mg/kg/injection, schedule: Q04DX003 (ip), vehicle: saline): 109 % of control
- T/C (dose: 18.8 mg/kg/injection, schedule: Q04DX003 (ip), vehicle: saline): 122 % of control
- T/C (dose: 25.0 mg/kg/injection, schedule: Q01DX009 (ip), vehicle: saline with Tween-80): 119 % of control
- T/C (dose: 25.0 mg/kg/injection, schedule: Q01DX009 (ip), vehicle: saline): 150 % of control
- T/C (dose: 50.0 mg/kg/injection, schedule: Q01DX009 (ip), vehicle: saline with Tween-80): 122 % of control
- T/C (dose: 50.0 mg/kg/injection, schedule: Q01DX009 (ip), vehicle: saline): 154 % of control
- T/C (dose: 75.0 mg/kg/injection, schedule: Q01DX009 (ip), vehicle: saline with Tween-80): 111 % of control and 122 % of control
- T/C (dose: 75.0 mg/kg/injection, schedule: Q01DX009 (ip), vehicle: saline): 158 % of control
- T/C (dose: 150.0 mg/kg/injection, schedule: Q04DX003 (ip), vehicle: saline): 123 % of control

Compound: CC(=O)CC(c1ccccc1)C(Sc1ccccc1)(Sc1ccccc1)Sc1ccccc1 (stereo not given)
- T/C [1]: 101 % of control
- T/C [2]: 93 % of control

Compound: CC(=O)Nc1c2ccccc2nc2ccccc12
- T/C (dose: 50.0 mg/kg/injection, schedule: Q01DX005 (ip), vehicle: saline with Tween-80): 95 % of control
- T/C (dose: 100.0 mg/kg/injection, schedule: Q01DX005 (ip), vehicle: saline with Tween-80): 91 % of control
- T/C (dose: 200.0 mg/kg/injection, schedule: Q01DX005 (ip), vehicle: saline with Tween-80): 94 % of control

Compound: COC(=O)C1C(OS(=O)(=O)O)CCC2CN3CCc4c([nH]c5ccccc45)C3CC21 (stereo not given)
- T/C (dose: 60.0 mg/kg/injection, schedule: Q01DX005 (ip), vehicle: Klucel (hydroxypropylcellulose) (HPC)): 102 % of control
- T/C (dose: 120.0 mg/kg/injection, schedule: Q01DX005 (ip), vehicle: Klucel (hydroxypropylcellulose) (HPC)): 105 % of control
- T/C (dose: 240.0 mg/kg/injection, schedule: Q01DX005 (ip), vehicle: Klucel (hydroxypropylcellulose) (HPC)): 103 % of control

Compound: O=S1(=O)N2CN3CN(C2)CN1C3
- T/C (dose: 6.25 mg/kg/injection, schedule: Q04DX003 (ip), vehicle: Klucel (hydroxypropylcellulose) (HPC)): 106 % of control
- T/C (dose: 12.5 mg/kg/injection, schedule: Q04DX003 (ip), vehicle: Klucel (hydroxypropylcellulose) (HPC)): 104 % of control
- T/C (dose: 25.0 mg/kg/injection, schedule: Q04DX003 (ip), vehicle: Klucel (hydroxypropylcellulose) (HPC)): 111 % of control
- T/C (dose: 50.0 mg/kg/injection, schedule: Q04DX003 (ip), vehicle: Klucel (hydroxypropylcellulose) (HPC)): 106 % of control

Compound: O=C1c2ccccc2C(=O)c2c(O)c(NCCNCCO)cc(O)c21
- T/C (dose: 1.25 mg/kg/injection, schedule: Q01DX009 (ip), vehicle: acid diluted with saline): 113 % of control
- T/C (dose: 2.5 mg/kg/injection, schedule: Q01DX009 (ip), vehicle: acid diluted with saline): 98 % of control and 104 % of control
- T/C (dose: 5.0 mg/kg/injection, schedule: Q01DX009 (ip), vehicle: acid diluted with saline): 117 % of control and 122 % of control
- T/C (dose: 10.0 mg/kg/injection, schedule: Q01DX009 (ip), vehicle: acid diluted with saline): 108 % of control and 124 % of control
- T/C (dose: 20.0 mg/kg/injection, schedule: Q01DX009 (ip), vehicle: acid diluted with saline): 104 % of control and 118 % of control
- T/C (dose: 40.0 mg/kg/injection, schedule: Q01DX009 (ip), vehicle: acid diluted with saline): 108 % of control
- T/C (dose: 80.0 mg/kg/injection, schedule: Q01DX009 (ip), vehicle: acid diluted with saline): 89 % of control

Compound: S=c1[nH]ccn1-c1ccccc1
- T/C (dose: 25.0 mg/kg/injection, schedule: Q01DX009 (ip), vehicle: Klucel (hydroxypropylcellulose) (HPC)): 99 % of control
- T/C [1]: 104 % of control
- T/C [3]: 109 % of control
- T/C [2]: 95 % of control

Compound: C=C1C(=O)C23CCC4C5(C)CCCC4(C4OCCN4C5)C2CCC1C3 (stereo not given)
- T/C (dose: 1.0 mg/kg/injection, schedule: Q01DX009 (ip), vehicle: Klucel (hydroxypropylcellulose) (HPC)): 104 % of control
- T/C (dose: 2.0 mg/kg/injection, schedule: Q01DX009 (ip), vehicle: Klucel (hydroxypropylcellulose) (HPC)): 107 % of control
- T/C (dose: 4.0 mg/kg/injection, schedule: Q01DX009 (ip), vehicle: Klucel (hydroxypropylcellulose) (HPC)): 95 % of control
- T/C (dose: 8.0 mg/kg/injection, schedule: Q01DX009 (ip), vehicle: Klucel (hydroxypropylcellulose) (HPC)): 95 % of control

Compound: COC(C(=O)C(OC(C)=O)C(C)OC(C)=O)C1Cc2cc3cc(OC4CC(OC5CC(OC(C)=O)C(OC(C)=O)C(C)O5)C(OC(C)=O)C(C)O4)c(C)c(OC(C)=O)c3c(OC(C)=O)c2C(=O)C1OC1CC(OC2CC(OC(C)=O)C(OC3CC(C)(OC(C)=O)C(OC(C)=O)C(C)O3)C(C)O2)C(OC(C)=O)C(C)O1 (stereo not given)
- T/C (dose: 0.13 mg/kg/injection, schedule: Q01DX009 (ip), vehicle: water): 98 % of control
- T/C (dose: 0.25 mg/kg/injection, schedule: Q01DX009 (ip), vehicle: water): 99 % of control
- T/C (dose: 0.5 mg/kg/injection, schedule: Q01DX009 (ip), vehicle: water): 105 % of control
- T/C (dose: 1.0 mg/kg/injection, schedule: Q01DX009 (ip), vehicle: water): 105 % of control
- T/C (dose: 2.0 mg/kg/injection, schedule: Q01DX009 (ip), vehicle: water): 107 % of control
- T/C (dose: 4.0 mg/kg/injection, schedule: Q01DX009 (ip), vehicle: water): 111 % of control
- T/C (dose: 8.0 mg/kg/injection, schedule: Q01DX009 (ip), vehicle: water): 114 % of control
- T/C (dose: 11.5 mg/kg/injection, schedule: Q01DX009 (ip), vehicle: water): 106 % of control
- T/C (dose: 23.0 mg/kg/injection, schedule: Q01DX009 (ip), vehicle: water): 108 % of control
- T/C (dose: 46.0 mg/kg/injection, schedule: Q01DX009 (ip), vehicle: water): 115 % of control

Compound: CN1C(C)(C)CC(O)(C#N)CC1(C)C
- T/C [4]: 100 % of control
- T/C [5]: 98 % of control
- T/C [6]: 103 % of control

Compound: O=C1NC(=O)C2(CCCC2=Nc2ccc(Br)cc2)C2C=CN(Cc3ccccc3)C=C12 (stereo not given)
- T/C (dose: 25.0 mg/kg/injection, schedule: Q04DX003 (ip), vehicle: saline): 107 % of control
- T/C (dose: 50.0 mg/kg/injection, schedule: Q04DX003 (ip), vehicle: saline): 107 % of control
- T/C (dose: 100.0 mg/kg/injection, schedule: Q04DX003 (ip), vehicle: saline): 105 % of control and 110 % of control
- T/C (dose: 200.0 mg/kg/injection, schedule: Q04DX003 (ip), vehicle: saline): 107 % of control

Compound: CNC(=O)c1nn(C)c(=O)[nH]c1=O
- T/C [4]: 97 % of control
- T/C [5]: 103 % of control
- T/C [6]: 96 % of control

Compound: O=C(CCCCC(=O)Nc1cc(C2=NCCN2)cc(C2N=CCN2)c1)Nc1cc(C2=NCCN2)cc(C2=NCCN2)c1 (stereo not given)
- T/C (dose: 6.25 mg/kg/injection, schedule: Q01DX005 (ip), vehicle: saline): 104 % of control

Compound: Cc1c(C)n(-c2ccccc2)c2nc(C)n(-c3ccccc3Cl)c(=N)c12
- T/C (dose: 50.0 mg/kg/injection, schedule: Q01DX005 (ip), vehicle: Klucel (hydroxypropylcellulose) (HPC)): 97 % of control
- T/C (dose: 100.0 mg/kg/injection, schedule: Q01DX005 (ip), vehicle: Klucel (hydroxypropylcellulose) (HPC)): 90 % of control

Compound: COC1/C=C/OC2(C)Oc3c(C)c(O)c4c(c3C2=O)C(=O)C=C(NC(=O)/C(C)=C\C=C\C(C)C2OC(C)(C)OC(C(C)C(=O)C1C)C2C)C4=O (stereo not given)
- T/C [7]: 103 % of control
- T/C [8]: 95 % of control
- T/C [9]: 100 % of control

Compound: CCOC(=O)c1c(C)c2c(n1C)CCc1c-2nc(N)[nH]c1=O
- T/C [1]: 97 % of control
- T/C [3]: 97 % of control
- T/C [2]: 88 % of control

Compound: CC(=O)Nc1ccc(O)c(CN2CCN(c3ccccc3)CC2)c1
- T/C [1]: 102 % of control
- T/C [3]: 103 % of control
- T/C [2]: 97 % of control

Compound: COCNC(=O)N=C1N(COC)COCN1COC
- T/C [7]: 109 % of control
- T/C [8]: 106 % of control
- T/C [9]: 100 % of control

Compound: CSc1nc(SC)c2c(CO)c(Br)n(Cc3ccccc3)c2n1
- T/C (dose: 100.0 mg/kg/injection, schedule: Q04DX002 (ip), vehicle: saline with Tween-80): 98 % of control
- T/C (dose: 200.0 mg/kg/injection, schedule: Q04DX002 (ip), vehicle: saline with Tween-80): 94 % of control
- T/C (dose: 400.0 mg/kg/injection, schedule: Q04DX002 (ip), vehicle: saline with Tween-80): 88 % of control
